Laboratory results: the NIST ThermoML archive (doi:10.1016/j.tca.2013.08.031)

Assay: molar heat capacity at constant volume
Details: Fluid (supercritical or subcritical phases), Vacuum adiabatic calorimetry

CCC(C)O (stereo not given) [butan-2-ol]
Details	molar heat capacity at constant volume [J/K/mol]
462.76 K, Mass density=598.18 kg/m3	276.1
462.95 K, Mass density=598.18 kg/m3	279.07
463.15 K, Mass density=598.18 kg/m3	277.81
463.35 K, Mass density=598.18 kg/m3	282.48
463.45 K, Mass density=598.18 kg/m3	292.34
463.74 K, Mass density=598.18 kg/m3	258.76
463.93 K, Mass density=598.18 kg/m3	219.18
464.13 K, Mass density=598.18 kg/m3	217.62
464.33 K, Mass density=598.18 kg/m3	217.32
464.53 K, Mass density=598.18 kg/m3	218.88
464.72 K, Mass density=598.18 kg/m3	216.73
464.92 K, Mass density=598.18 kg/m3	217.62
465.11 K, Mass density=598.18 kg/m3	217.55
465.31 K, Mass density=598.18 kg/m3	218.07
467.66 K, Mass density=598.18 kg/m3	219.18
467.86 K, Mass density=598.18 kg/m3	218.88
468.05 K, Mass density=598.18 kg/m3	218.44
468.25 K, Mass density=598.18 kg/m3	219.84
468.45 K, Mass density=598.18 kg/m3	219.92
469.23 K, Mass density=598.18 kg/m3	222.44
469.42 K, Mass density=598.18 kg/m3	222.36
481.46 K, Mass density=538.17 kg/m3	279.66
481.66 K, Mass density=538.17 kg/m3	284.78
481.85 K, Mass density=538.17 kg/m3	283.59
482.04 K, Mass density=538.17 kg/m3	284.55
482.24 K, Mass density=538.17 kg/m3	286.41
482.43 K, Mass density=538.17 kg/m3	287.44
482.62 K, Mass density=538.17 kg/m3	289.22
482.81 K, Mass density=538.17 kg/m3	288.41
483.01 K, Mass density=538.17 kg/m3	289
483.2 K, Mass density=538.17 kg/m3	291.15
483.39 K, Mass density=538.17 kg/m3	289.82
483.58 K, Mass density=538.17 kg/m3	289.59
483.78 K, Mass density=538.17 kg/m3	289.59
487.62 K, Mass density=538.17 kg/m3	282.7
487.81 K, Mass density=538.17 kg/m3	280.25
488 K, Mass density=538.17 kg/m3	282.4
488.19 K, Mass density=538.17 kg/m3	287.74
488.39 K, Mass density=538.17 kg/m3	290.63
489.53 K, Mass density=538.17 kg/m3	283.44
489.73 K, Mass density=538.17 kg/m3	289.07
489.92 K, Mass density=538.17 kg/m3	294.19
490.11 K, Mass density=538.17 kg/m3	289.3
490.87 K, Mass density=538.17 kg/m3	282.03
491.06 K, Mass density=538.17 kg/m3	283.07
491.45 K, Mass density=538.17 kg/m3	285.52
491.64 K, Mass density=538.17 kg/m3	290.85
491.83 K, Mass density=538.17 kg/m3	286.92
492.02 K, Mass density=538.17 kg/m3	283.07
492.21 K, Mass density=538.17 kg/m3	281.44
492.4 K, Mass density=538.17 kg/m3	282.18
492.59 K, Mass density=538.17 kg/m3	258.31
492.78 K, Mass density=538.17 kg/m3	240.45
492.97 K, Mass density=538.17 kg/m3	211.02
493.16 K, Mass density=538.17 kg/m3	211.77
493.36 K, Mass density=538.17 kg/m3	215.03
493.55 K, Mass density=474.07 kg/m3	293.52
493.55 K, Mass density=538.17 kg/m3	215.03
493.74 K, Mass density=474.07 kg/m3	285.37
493.93 K, Mass density=474.07 kg/m3	291.3
494.12 K, Mass density=474.07 kg/m3	294.26
494.31 K, Mass density=474.07 kg/m3	297.97
494.5 K, Mass density=474.07 kg/m3	291.3
494.69 K, Mass density=474.07 kg/m3	288.33
494.88 K, Mass density=474.07 kg/m3	272.77
495.07 K, Mass density=474.07 kg/m3	277.21
495.26 K, Mass density=474.07 kg/m3	272.77
495.45 K, Mass density=474.07 kg/m3	279.44
501.71 K, Mass density=76.44 kg/m3	522.04
501.9 K, Mass density=76.44 kg/m3	509.29
502.09 K, Mass density=76.44 kg/m3	497.21
502.28 K, Mass density=76.44 kg/m3	502.03
502.46 K, Mass density=76.44 kg/m3	499.06
502.65 K, Mass density=76.44 kg/m3	495.28
502.84 K, Mass density=76.44 kg/m3	491.43
503.03 K, Mass density=76.44 kg/m3	490.83
503.22 K, Mass density=76.44 kg/m3	487.05
503.41 K, Mass density=76.44 kg/m3	488.98
503.6 K, Mass density=76.44 kg/m3	491.8
503.97 K, Mass density=76.44 kg/m3	497.73
504.16 K, Mass density=76.44 kg/m3	500.54
504.35 K, Mass density=76.44 kg/m3	512.25
504.54 K, Mass density=76.44 kg/m3	524.04
504.73 K, Mass density=76.44 kg/m3	551.69
504.92 K, Mass density=76.44 kg/m3	530.27
505.11 K, Mass density=76.44 kg/m3	521.82
505.29 K, Mass density=76.44 kg/m3	499.58
505.48 K, Mass density=76.44 kg/m3	412.34
505.67 K, Mass density=76.44 kg/m3	315.91
505.86 K, Mass density=76.44 kg/m3	251.94
506.05 K, Mass density=76.44 kg/m3	248.83
510.37 K, Mass density=474.07 kg/m3	291.3
510.55 K, Mass density=474.07 kg/m3	290.56
510.74 K, Mass density=474.07 kg/m3	293.52
510.93 K, Mass density=474.07 kg/m3	293.52
511.49 K, Mass density=474.07 kg/m3	292.04
511.68 K, Mass density=474.07 kg/m3	295
511.87 K, Mass density=474.07 kg/m3	292.78
512.43 K, Mass density=474.07 kg/m3	296.49
512.61 K, Mass density=474.07 kg/m3	295.75
512.8 K, Mass density=474.07 kg/m3	295.75
513.18 K, Mass density=95.93 kg/m3	639
513.36 K, Mass density=95.93 kg/m3	647.6
513.36 K, Mass density=474.07 kg/m3	281.66
513.55 K, Mass density=95.93 kg/m3	645.08
